The source of these data is ChEMBL document CHEMBL4304773, “Nitroimidazole-containing compounds and their antibacterial and antitubercular activities” (2019).

What all share (type): functional
Assay [1] deals with Staphylococcus aureus. The assay is described as follows: Antibacterial activity against Staphylococcus aureus ATCC 25923.
Assay [2] deals with Escherichia coli. Put plainly: Antibacterial activity against Escherichia coli.
A further assay relates to Klebsiella pneumoniae. The assay is described as follows: Antibacterial activity against Klebsiella pneumoniae.
The subject of another assay is Acinetobacter baumannii. The assay is described as follows: Antibacterial activity against Acinetobacter baumannii.
The subject of assay [3] is Escherichia coli. The assay is described as follows: Antibacterial activity against Escherichia coli ATCC 25922.
Assay [4] deals with Pseudomonas aeruginosa. Put plainly: Antibacterial activity against Pseudomonas aeruginosa.
The subject of assay [5] is Pseudomonas aeruginosa. Put plainly: Antibacterial activity against Pseudomonas aeruginosa ATCC 27853.
For another assay, the system named is Enterococcus faecalis. The assay is described as follows: Antibacterial activity against Enterococcus faecalis.
In assay [6] the test system is Staphylococcus aureus. Put plainly: Antibacterial activity against Staphylococcus aureus ATCC 29213.
For assay [7], the system named is Staphylococcus aureus. Put plainly: Antibacterial activity against methicillin-resistant Staphylococcus aureus N315.
A further assay deals with Bacillus subtilis. Put plainly: Antibacterial activity against Bacillus subtilis.
In another assay the test system is Candida albicans. Put plainly: Antifungal activity against Candida albicans.
Assay [8] concerns Staphylococcus aureus. The assay is described as follows: Antibacterial activity against Staphylococcus aureus.

In brackets after ≈: the same amount, converted by molar mass.

A word on the MIC: it is the lowest concentration that inhibits growth of the organism. For `Cc1ncc([N+](=O)[O-])n1CC(O)CN1C(=O)c2cccc3c(N4CCNCC4)ccc(c23)C1=O` (stereo not given), the minimum inhibitory concentration (MIC) against Staphylococcus aureus [1] fell in the range of 69 to 1140 µM (≈ 32 to 530 µg/mL); with Escherichia coli [2] it was 69 to 1140 µM; against Klebsiella pneumoniae, 69 to 1140 µM (≈ 32 to 530 µg/mL); in the assay with Acinetobacter baumannii, 69 to 1140 µM (≈ 32 to 530 µg/mL); against Escherichia coli [3], 69 to 1140 µM (≈ 32 to 530 µg/mL); in the assay on Pseudomonas aeruginosa [4], 69 to 1140 µM. In addition, the MIC in the assay on Pseudomonas aeruginosa [5], against Enterococcus faecalis, against Staphylococcus aureus [6] and in the assay on Staphylococcus aureus [7] was 69 to 1140 µM (≈ 32 to 530 µg/mL) each time.

Take `NC1CCN(c2c(F)cc3c(=O)c(C(=O)O)cn(C4CC4)c3c2Cl)C1` (stereo not given) [CLINAFLOXACIN]: the minimum inhibitory concentration (MIC) in the assay with Staphylococcus aureus [1] is 5 to 88 µM (≈ 1.83 to 32.2 µg/mL); against Escherichia coli [2], 5 to 88 µM; against Klebsiella pneumoniae it was 5 to 88 µM (≈ 1.83 to 32.2 µg/mL); in the assay on Acinetobacter baumannii, 5 to 88 µM (≈ 1.83 to 32.2 µg/mL); in the assay with Escherichia coli [3], 5 to 88 µM (≈ 1.83 to 32.2 µg/mL); with Pseudomonas aeruginosa [4], 5 to 88 µM. Further, the MIC against Pseudomonas aeruginosa [5], against Enterococcus faecalis, against Staphylococcus aureus [6] and against Staphylococcus aureus [7] was 5 to 88 µM (≈ 1.83 to 32.2 µg/mL) throughout.

On to `CCCCCCCCN1CCN(c2ccc3c4c(cccc24)C(=O)N(CC(O)Cn2c([N+](=O)[O-])cnc2C)C3=O)CC1` (stereo not given), for which the MIC against Staphylococcus aureus [1] is 13 to 1020 µM (≈ 7.5 to 588 µg/mL); with Escherichia coli [2], 13 to 1020 µM; in the assay with Klebsiella pneumoniae, 13 to 1020 µM (≈ 7.5 to 588 µg/mL); against Acinetobacter baumannii, 13 to 1020 µM (≈ 7.5 to 588 µg/mL); with Escherichia coli [3], 13 to 1020 µM (≈ 7.5 to 588 µg/mL); with Pseudomonas aeruginosa [4], 13 to 1020 µM. For the same compound, the MIC in the assay with Pseudomonas aeruginosa [5], in the assay with Enterococcus faecalis, in the assay on Staphylococcus aureus [6] and in the assay on Staphylococcus aureus [7] was 13 to 1020 µM (≈ 7.5 to 588 µg/mL) each time.

As to `Cc1ncc([N+](=O)[O-])n1CC(O)CN1C(=O)c2cccc3c(N4CCCCC4)ccc(c23)C1=O` (stereo not given), the MIC against Staphylococcus aureus [1] was 69 to 1140 µM (≈ 32 to 528 µg/mL); against Escherichia coli [2], 69 to 1140 µM; against Klebsiella pneumoniae, 69 to 1140 µM (≈ 32 to 528 µg/mL); in the assay on Acinetobacter baumannii it was 69 to 1140 µM (≈ 32 to 528 µg/mL); in the assay on Escherichia coli [3], 69 to 1140 µM (≈ 32 to 528 µg/mL); with Pseudomonas aeruginosa [4] it was 69 to 1140 µM. Further, the MIC in the assay on Pseudomonas aeruginosa [5], against Enterococcus faecalis, against Staphylococcus aureus [6] and against Staphylococcus aureus [7] was 69 to 1140 µM (≈ 32 to 528 µg/mL) each time.

Take `COc1ccc(C2OC(Cn3c([N+](=O)[O-])cnc3C)=NN2C(C)=O)cc1` (stereo not given): the minimum inhibitory concentration (MIC) in the assay on Bacillus subtilis lay within 0.25 to 0.5 µg/mL (≈ 0.696 to 1.39 µM); with Escherichia coli [2], 0.25 to 0.5 µg/mL; in the assay on Candida albicans, 0.25 to 0.5 µg/mL (≈ 0.696 to 1.39 µM); in the assay on Pseudomonas aeruginosa [4], 0.25 to 0.5 µg/mL; against Staphylococcus aureus [8], 0.25 to 0.5 µg/mL (≈ 0.696 to 1.39 µM).

In the case of `C=CCN1CCN(c2ccc3c4c(cccc24)C(=O)N(CC(O)Cn2c([N+](=O)[O-])cnc2C)C3=O)CC1` (stereo not given), the MIC in the assay with Staphylococcus aureus [1] is 13 to 1020 µM (≈ 6.56 to 515 µg/mL); against Escherichia coli [2], 13 to 1020 µM; against Klebsiella pneumoniae it was 13 to 1020 µM (≈ 6.56 to 515 µg/mL); in the assay on Acinetobacter baumannii, 13 to 1020 µM (≈ 6.56 to 515 µg/mL); against Escherichia coli [3], 13 to 1020 µM (≈ 6.56 to 515 µg/mL); in the assay with Pseudomonas aeruginosa [4], 13 to 1020 µM. The minimal inhibitory concentration (MIC) against Pseudomonas aeruginosa [5], in the assay on Enterococcus faecalis, with Staphylococcus aureus [6] and in the assay on Staphylococcus aureus [7] was 13 to 1020 µM (≈ 6.56 to 515 µg/mL) throughout.

Regarding `CCCCCCN1CCN(c2ccc3c4c(cccc24)C(=O)N(CC(O)Cn2c([N+](=O)[O-])cnc2C)C3=O)CC1` (stereo not given), the minimum inhibitory concentration (MIC) in the assay with Staphylococcus aureus [1] lay in the range of 13 to 1020 µM (≈ 7.13 to 560 µg/mL); in the assay on Escherichia coli [2], 13 to 1020 µM; against Klebsiella pneumoniae, 13 to 1020 µM (≈ 7.13 to 560 µg/mL); against Acinetobacter baumannii, 13 to 1020 µM (≈ 7.13 to 560 µg/mL); against Escherichia coli [3] it was 13 to 1020 µM (≈ 7.13 to 560 µg/mL); against Pseudomonas aeruginosa [4], 13 to 1020 µM. The minimum inhibitory concentration (MIC) against Pseudomonas aeruginosa [5], against Enterococcus faecalis, in the assay with Staphylococcus aureus [6] and in the assay on Staphylococcus aureus [7] was 13 to 1020 µM (≈ 7.13 to 560 µg/mL) in each case.

In the case of `OC(Cn1cncn1)(Cn1cncn1)c1ccc(F)cc1F` [FLUCONAZOLE], the MIC turned out to be 0.25 µg/mL (≈ 0.816 µM) with Bacillus subtilis; 0.25 µg/mL in the assay on Escherichia coli [2]; 0.25 µg/mL (≈ 0.816 µM) in the assay on Candida albicans; 0.25 µg/mL against Pseudomonas aeruginosa [4]; 0.25 µg/mL (≈ 0.816 µM) in the assay on Staphylococcus aureus [8].

`CC(=O)N1N=C(Cn2c([N+](=O)[O-])cnc2C)OC1c1ccc(Cl)cc1` (stereo not given): the minimum inhibitory concentration (MIC) against Bacillus subtilis lay within 0.25 to 0.5 µg/mL (≈ 0.687 to 1.37 µM); against Escherichia coli [2] it was 0.25 to 0.5 µg/mL; against Candida albicans, 0.25 to 0.5 µg/mL (≈ 0.687 to 1.37 µM); against Pseudomonas aeruginosa [4], 0.25 to 0.5 µg/mL; against Staphylococcus aureus [8], 0.25 to 0.5 µg/mL (≈ 0.687 to 1.37 µM).
